{"source": "patent EP2557075A1", "about": "“New triazene compounds for treating cancer” (Trin Therapeutics GmbH, priority 2011, dated 2013)", "system": "HCT-8", "assay": "Intracellular uptake of triazenes in HCT-8 cells (Experiment 2)", "assay_type": "in vitro ADME", "conditions": "HCT-8, 50.000ng/ml, 10.000ng/ml O6-Benzylguanin, first two time points (2, 4 Stunden)", "protocol": "Es wird gezeigt, dass Verbindungen nach Beispiel 1 schneller und in größerer Menge intrazellulär aufgenommen werden als die als Vergleichssubstanzen eingesetzten Verbindungen nach Präparat 2 und 5 (entsprechend Verbindungen nach Präparat 2 und Beispiel 2a jeweils der WO 2009/004060).\nDie getesteten Verbindungen wurden wie folgt gelöst: • Erfindungsgemäße Verbindung: • Beispiel 1: in 20 mg/ml DMSO\nVergleichssubstanzen: • Präparat 2: in 50mg/ml DMSO, • Präparat 5: in 50mg/ml Wasser.\nAlle drei Substanzen wurden in einer Dosis von 50.000ng/ml auf 2 x 10^7 HepG2 und HCT-8 sowie 2 x 10^6-MDA-MB231 Zellen gegeben. Als Zellkulturmedium wurde 100% (MDA-MB231: 50%) fötales Kälberserum (FCS) verwendet. Zudem wurde bei den Versuchen mit HepG2 und HCT-8 noch 10.000ng/ml O6-Benzylguanin zugesetzt. Für den Versuch wurde die intrazelluläre Konzentration von Ausgangsprodukt und Metaboliten nach 2, 4 und 20 (HepG2), 2 und 3,5 und 20 Stunden (MDA-MB231) und 2,4, 24 und 48 Stunden (HCT-8) Inkubationszeit ermittelt. Alle drei Substanzen zeigten in Kontrollversuchen mit 100% FCS nach 40 Stunden metabolische Stabilität.", "data": [{"smiles": "CN(C)N=Nc1ccc(C(=O)c2ccc(O)cc2)cc1", "note": "[Beispiel 1]", "values": [{"measurement": "intrazelluläre Konzentration vs. Vergleichssubstanzen", "value": "deutlich schneller und für die ersten beiden Messpunkte auch in höherer Konzentration intrazellulär nachweisbar"}]}]}
